In PubChem BioAssay (NCI):
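Five compound concentrations were applied to cells in 96-well plates for 48 hours; endpoints were derived by simple linear interpolation of the resulting dose-response curve. The concentration for 50% growth inhibition is given as GI50. TGI marks complete inhibition of growth.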

Legend:
Assay in all cases: NCI anticancer screen, dose series, 48 h
[1] = tested on: ACHN renal
[2] = tested on: RXF 393 renal
[3] = tested on: HCT-116 colon
[4] = tested on: UO-31 renal
[5] = tested on: BT-549 breast
[6] = tested on: NCI-H522 lung
[7] = tested on: SN12C renal
[8] = tested on: SW-620 colon
[9] = tested on: OVCAR-5 ovarian
[10] = tested on: NCI/ADR-RES ovarian
[11] = tested on: UACC-257 melanoma
[12] = tested on: SK-MEL-28 melanoma
[13] = tested on: SNB-19 CNS
[14] = tested on: HOP-92 NSCLC
[15] = tested on: T-47D breast
[16] = tested on: KM12 colon
[17] = tested on: MDA-MB-435
[18] = tested on: U251 CNS
[19] = tested on: NCI-H226 lung
[20] = tested on: A549 NSCLC
[21] = tested on: UACC-62 melanoma
[22] = tested on: SNB-75 CNS
[23] = tested on: COLO 205 colon
[24] = tested on: MOLT-4 leukemia
[25] = tested on: MCF7 breast
[26] = tested on: SK-OV-3 ovarian
[27] = tested on: K-562 leukemia
[28] = tested on: OVCAR-3 ovarian
[29] = tested on: HT29 colon
[30] = tested on: RPMI-8226 leukemia
[31] = tested on: HCC-2998 colon
[32] = tested on: 786-0 renal
[33] = tested on: SK-MEL-2 melanoma
[34] = tested on: MDA-MB-231 breast
[35] = tested on: SF-295 CNS
[36] = tested on: DU-145 prostate
[37] = tested on: OVCAR-8 ovarian
[38] = tested on: HL-60(TB) leukemia
[39] = tested on: SF-539 CNS
[40] = tested on: MALME-3M melanoma
[41] = tested on: SF-268 CNS
[42] = tested on: OVCAR-4 ovarian
[43] = tested on: HS 578T breast
[44] = tested on: SK-MEL-5 melanoma
[45] = tested on: EKVX NSCLC
[46] = tested on: NCI-H460 lung
[47] = tested on: IGROV1 ovarian
[48] = tested on: NCI-H23 lung
[49] = tested on: CAKI-1 renal
[50] = tested on: HCT-15 colon
[51] = tested on: M14 melanoma
[52] = tested on: PC-3 prostate
[53] = tested on: LOX IMVI melanoma
[54] = tested on: CCRF-CEM leukemia
[55] = tested on: A498 renal
[56] = tested on: HOP-62 NSCLC
[57] = tested on: TK-10 renal

`CCOC(=O)C1=C(C)N=C2SC=C(c3ccccc3)N2[C@H]1c1cn[nH]c1-c1ccc(Cl)cc1` showed a GI50 [1] of 3.03 µM, a TGI [1] of 11.7 µM and a GI50 [2] of 5.32 µM. It also gave a TGI [2] of 19.1 µM, a GI50 [3] of 3.11 µM and a TGI [3] of 13.3 µM. It also gave a GI50 [4] of 1.39 µM, a TGI [4] of 9.53 µM and a GI50 [5] of 3.84 µM. It also gave a TGI [5] of 13.9 µM, a GI50 [6] of 1.68 µM and a TGI [6] of 3.44 µM. It also gave a GI50 [7] of 4.51 µM, a TGI [7] of 17.3 µM and a GI50 [8] of 3.84 µM. The TGI [8] was 14.4 µM, the GI50 [9] was 6.06 µM and the TGI [9] was 19.9 µM. It also gave a GI50 [10] of 5.97 µM, a TGI [10] of 27.6 µM and a GI50 [11] of 10.1 µM. It also gave a TGI [11] of 24.1 µM, a GI50 [12] of 4.92 µM and a TGI [12] of 16.8 µM. It also gave a GI50 [13] of 7.65 µM, a TGI [13] of 20.7 µM and a GI50 [14] of 2.4 µM. It also gave a TGI [14] of 8.7 µM, a GI50 [15] of 3.13 µM and a TGI [15] of 22.4 µM. It also gave a GI50 [16] of 4.69 µM, a TGI [16] of 17.5 µM and a GI50 [17] of 4.07 µM. The TGI [17] was 15.2 µM, the GI50 [18] was 3.8 µM and the TGI [18] was 16.4 µM. For the same compound, the GI50 [19] was 8.25 µM, the TGI [19] was 46.1 µM and the GI50 [20] was 6.73 µM. It also gave a TGI [20] of 24.7 µM, a GI50 [21] of 2.85 µM and a TGI [21] of 12.5 µM. For the same compound, the GI50 [22] was 5.05 µM, the TGI [22] was 18.3 µM and the GI50 [23] was 3.53 µM. For the same compound, the TGI [23] was 15.1 µM, the GI50 [24] was 2.29 µM and the TGI [24] was 7.41 µM. It also gave a GI50 [25] of 2.7 µM, a TGI [25] of 13.8 µM and a GI50 [26] of 7.39 µM. It also gave a TGI [26] of 20.1 µM, a GI50 [27] of 3.67 µM and a TGI [27] of 23.2 µM. It also gave a GI50 [28] of 3.21 µM, a TGI [28] of 12 µM and a GI50 [29] of 4.32 µM. The TGI [29] was 13.7 µM, the GI50 [30] was 2.65 µM and the TGI [30] was 9.39 µM. It also gave a GI50 [31] of 6.24 µM, a TGI [31] of 20.4 µM and a GI50 [32] of 5.2 µM. For the same compound, the TGI [32] was 17 µM, the GI50 [33] was 6.21 µM and the TGI [33] was 19.3 µM. The GI50 [34] was 2.32 µM, the TGI [34] was 7.96 µM and the GI50 [35] was 7.96 µM. For the same compound, the TGI [35] was 22.2 µM, the GI50 [36] was 6.12 µM and the TGI [36] was 18.8 µM. The GI50 [37] was 4.46 µM, the TGI [37] was 19.6 µM and the GI50 [38] was 2.85 µM. It also gave a TGI [38] of 7.98 µM, a GI50 [39] of 5.68 µM and a TGI [39] of 18 µM. It also gave a GI50 [40] of 1.6 µM, a TGI [40] of 3.45 µM and a GI50 [41] of 3.65 µM. It also gave a TGI [41] of 16.6 µM, a GI50 [42] of 4.66 µM and a TGI [42] of 16.6 µM. The GI50 [43] was 3.68 µM, the TGI [43] was 34.5 µM and the GI50 [44] was 3.22 µM. It also gave a TGI [44] of 12 µM, a GI50 [45] of 7.68 µM and a TGI [45] of 22.3 µM. The GI50 [46] was 3.36 µM, the TGI [46] was 12.7 µM and the GI50 [47] was 2.33 µM. The TGI [47] was 7.61 µM, the GI50 [48] was 4.64 µM and the TGI [48] was 19.6 µM. For the same compound, the GI50 [49] was 1.76 µM, the TGI [49] was 3.56 µM and the GI50 [50] was 3.19 µM. The TGI [50] was 11.7 µM, the GI50 [51] was 4.37 µM and the TGI [51] was 19.2 µM. It also gave a GI50 [52] of 3.98 µM, a TGI [52] of 17.3 µM and a GI50 [53] of 1.46 µM. For the same compound, the TGI [53] was 3.43 µM, the GI50 [54] was 3.12 µM and the TGI [54] was 14 µM. For the same compound, the GI50 [55] was 5.37 µM, the TGI [55] was 18.2 µM and the GI50 [56] was 7.09 µM. It also gave a TGI [56] of 22 µM, a GI50 [57] of 10.2 µM and a TGI [57] of 22.2 µM.
